Tests used:
[1] = test system: C57BL/6 J mice; test: Body temperature change in mice (dose-response sessions); assay type: in vivo, mouse; details: pre to post 30-min session, mean ± SEM
Description: (§1) Behavioral studies were conducted as previously described with minor modifications. Male C57BL/6 J mice (The Jackson Laboratory #000664, 24 mice/drug) were purchased at 8 weeks old, group housed for acclimation (3–5 per cage for 1–2 weeks) under a 12:12 light:dark cycle (07:00 local time = lights on), with ad libitum access to food and water at the NIDA IRP facilities in Baltimore, MD, USA. All experiments were approved by the NIDA IRP Animal Care and Use Committee. After acclimation to the vivarium facilities, each mouse was briefly anesthetized with isoflurane and a temperature transponder (14 × 2 mm, model IPTT-300, Bio Medic Data Systems, Inc., Seaford, DE, USA) was implanted subcutaneously (s.c.) on the back, posterior to the shoulder blades. After the implant, mice were single housed and allowed one week recovery prior to the start of experiments. […] Drugs were randomly assigned and administered s.c. as the weight of the form used at an injection volume of 0.01 mL/g body weight.
(§2) During experimental testing, mice were tested once every 1–2 weeks to avoid potential tolerance to behavioral effects of the test drugs and were tested 2–3 times in total per drug. Each test session began with a brief 5 min acclimation period to the testing arenas, followed by recording baseline body temperature using a handheld wand that was sensitive to the signals emitted from the s.c. transponder. After this, mice were injected s.c. with appropriate doses of test drug and returned to the chambers for a 30-min test session. During the dose-response sessions, locomotor activity was continuously recorded using open field chambers with photobeam arrays (Coulbourn Instruments, Holliston, MA, USA) that were modified with cylindrical inserts and custom floor panels that also allowed video recordings of each mouse to later quantify HTR activity (GoPro Hero 7 camera; 960p resolution at 120 frames per second). Videos for each mouse were analyzed post session using commercially available software used to quantify HTR as previously described.
(§3) Data analysis was performed with Prism software (version 10.1.2, GraphPad Software, Boston, MA, USA). The IC50 values from the radioligand binding assays were determined by nonlinear regression, using three independent concentration-response curves fitted to a one-site model. The Cheng-Prusoff equation was used to calculate Kᵢ values for the competing ligands. EC50 values were determined by applying nonlinear regression to concentration-response curves. Bias factors (β) were calculated based on the relative intrinsic activity approach. More detailed information can be found in the Supplementary information. Mean values for total number of HTR, change in body temperature from pre to post session (Δ°C), and total distance traveled (cm) for each drug dose were compared (p < 0.05) via Welch’s ANOVA with Dunnett’s T3 post test, comparing all doses to respective vehicle controls (0 mg/kg). Welch’s ANOVA with Dunnett’s T3 post test was also used to compare drug concentrations, but the data were compared to DOM in this case. Dose–response relationships for HTR and locomotor activities were plotted using bell-shaped curve fits, while temperature change data were plotted using four-parameter non-linear regression curve fits. The ascending phase of the HTR curve for each drug was used to determine ED50 potency values from four parameter non-linear regression fits. For combined DOM and DOAM administration, the plasma, brain tissue, and brain dialysate drug concentrations were compared using paired t-tests (p < 0.05). Ratios were compared using Holm-Sidak’s post hoc test following a repeated-measures one-way ANOVA (F (1.709, 6.835) = 70.80; p < 0.0001).
(§4) Locomotor activity and body temperature were also assessed to monitor other pharmacological effects of the drugs that may impact the HTR. […]

[2] = test system: C57BL/6 J mice; test: Head-twitch response (HTR) dose-response in mice, 30-min session; assay type: in vivo, mouse; details: for HTR (count/30 min): mean ± SEM
Description: as §1, §2, §3, §4

[3] = biological target: T1, hD2 (Homo sapiens, UniProt P14416); test: Radioligand binding, hD2 receptor ([3H]spiperone)
T1 construct: expressed in transfected cells; host or cells: HEK 293 cells (membrane preparation)
T1 sequence (P14416 whole entry): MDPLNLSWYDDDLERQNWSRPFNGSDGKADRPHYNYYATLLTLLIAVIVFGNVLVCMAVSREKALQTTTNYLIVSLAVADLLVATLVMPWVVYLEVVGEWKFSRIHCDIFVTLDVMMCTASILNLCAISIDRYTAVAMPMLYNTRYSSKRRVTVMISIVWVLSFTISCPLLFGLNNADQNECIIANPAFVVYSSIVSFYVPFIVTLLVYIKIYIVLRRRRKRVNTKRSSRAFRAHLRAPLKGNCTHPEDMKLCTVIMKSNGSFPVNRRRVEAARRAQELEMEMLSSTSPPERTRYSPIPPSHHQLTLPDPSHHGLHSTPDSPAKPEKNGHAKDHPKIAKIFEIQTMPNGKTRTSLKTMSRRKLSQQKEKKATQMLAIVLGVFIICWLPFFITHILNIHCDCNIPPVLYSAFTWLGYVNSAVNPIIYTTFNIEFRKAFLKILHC
Description: Binding affinities at human monoamine receptors and transporters were assessed as previously reported. A detailed description of the methodology is provided in the Supplementary information.
as §3
3.1 Assessment of receptor and transporter binding affinities
Membrane preparations were prepared from cells transfected with the respective target. The membrane preparations were then incubated with selective radioligands at concentrations equal to the corresponding Kd and displacement of the ligand by the drugs was measured. The difference between total binding and nonspecific binding (determined in the presence of selective competitors) was defined as specific binding of the radioligand to the target receptor. The following transfected cell lines were used for the binding assays: HEK 293 cells (h5-HT1A, h5-HT2A, h5-HT2B, h5-HT2C, and hD2 receptors, hDAT, hNET, and hSERT), Chinese hamster ovary cells (hα 1A receptor), and Chinese hamster lung cells (hα 2A receptor).
3.1.1 Membrane preparations for receptor and transporter binding
For producing membrane preparations, transfected cells were harvested with trypsin/EDTA, washed with ice-cold phosphate buffered saline, and then pelleted by centrifugation (210 × g for 5 min at 4 °C). The pellets were frozen and stored at -80 °C until use. Frozen pellets were resuspended in 20 m L (receptor binding) or 400 m L (transporter binding) buffer (20 mM HEPES -NaOH, 10 mM EDTA, pH 7.4), and homogenized at 1,100 × g for 20 s (receptor binding) or 560 × g for 15 s (transporter binding); the homogenates were then centrifuged at 48,000 × g for 30 min at 4 °C. […]
Competitive binding at the h5-HT1A and h5-HT2A receptor was determined using 0.90 nM [ 3H]8-hydroxy-2-(di-n-propylamine)tetralin ([ 3H]8-OH-DPAT; h5-HT1A receptor agonist) and 0.40 nM [3H]ketanserin (h5-HT2 receptor antagonist) as radioligands. […]

Compound: COc1cc(CC(C)N)c(OC)cc1C (stereo not drawn) [DOM, 4-methyl-2,5-dimethoxyamphetamine]
- ΔTemperature ([1]; 0.03 mg/kg s.c.): -0.1 ± 0.1 °C
- ΔTemperature ([1]; 0.1 mg/kg s.c.): 0.0 ± 0.1 °C
- ΔTemperature ([1]; 0.3 mg/kg s.c.): -0.1 ± 0.1 °C
- ΔTemperature ([1]; 1 mg/kg s.c.): 0.1 ± 0.1 °C
- ΔTemperature ([1]; 3 mg/kg s.c.): -0.2 ± 0.1 °C
- ΔTemperature ([1]; 10 mg/kg s.c.): -2.2 ± 0.8 °C
- ΔTemperature ([1]; 30 mg/kg s.c.): -6.5 ± 0.2 °C
- HTR (count/30 min) ([2]; 0.03 mg/kg s.c.): 10.2 ± 1.9 count
- HTR (count/30 min) ([2]; 0.1 mg/kg s.c.): 23.4 ± 2.1 count
- HTR (count/30 min) ([2]; 0.3 mg/kg s.c.): 39.0 ± 3.3 count
- HTR (count/30 min) ([2]; 1 mg/kg s.c.): 90.0 ± 4.4 count
- HTR (count/30 min) ([2]; 3 mg/kg s.c.): 119.2 ± 9.7 count
- HTR (count/30 min) ([2]; 10 mg/kg s.c.): 88.0 ± 18.1 count
- HTR (count/30 min) ([2]; 30 mg/kg s.c.): 13.7 ± 3.9 count
- ED50 ([2]; Mus musculus, sc, 0.5 h, read-out: HTR in mice ED50 (95% CI), s.c., 30 min session, ascending phase of dose-response curve): 0.66 mg/kg
- Fold higher total HTR counts of DOM vs DOAM ([2]; mouse, in vivo): 2.6 fold
- HTR in mice Emax ([2]; s.c., 30 min session): 119 total HTR count
- HTR in mice Maximum rate ([2]; s.c., 30 min session): 24 HTR count/5 min
- Peak HTR rate ([2]; s.c., 30 min session): 24 events/5 min
- Time of peak HTR rate post drug administration ([2]; s.c., 30 min session): 5 to 10 min
- Ki [3]: > 7.5 µM
